# Laboratory results taken from US8598153B2, “Method of treatment using fatty acid synthesis inhibitors” (Merck Sharp & Dohme Corp., priority 2006, dated 2013).
# Assays:
# human FAS = target: T1, human FAS (Homo sapiens, UniProt P49327); test: FAS inhibitory activity in cell free Flashplate assay (formation of 3H-palmitate), human FAS; format: biochemical; settings: human FAS from SkBr3 cells, cell free flash plate assay
# T1 construct: Cell extracts were processed by ammonium sulfate precipitation followed by DEAE chromatography; endogenous in cells; host or cells: SkBr3 human breast cancer cells (endogenous FAS, partially purified)
# T1 sequence (P49327 whole entry): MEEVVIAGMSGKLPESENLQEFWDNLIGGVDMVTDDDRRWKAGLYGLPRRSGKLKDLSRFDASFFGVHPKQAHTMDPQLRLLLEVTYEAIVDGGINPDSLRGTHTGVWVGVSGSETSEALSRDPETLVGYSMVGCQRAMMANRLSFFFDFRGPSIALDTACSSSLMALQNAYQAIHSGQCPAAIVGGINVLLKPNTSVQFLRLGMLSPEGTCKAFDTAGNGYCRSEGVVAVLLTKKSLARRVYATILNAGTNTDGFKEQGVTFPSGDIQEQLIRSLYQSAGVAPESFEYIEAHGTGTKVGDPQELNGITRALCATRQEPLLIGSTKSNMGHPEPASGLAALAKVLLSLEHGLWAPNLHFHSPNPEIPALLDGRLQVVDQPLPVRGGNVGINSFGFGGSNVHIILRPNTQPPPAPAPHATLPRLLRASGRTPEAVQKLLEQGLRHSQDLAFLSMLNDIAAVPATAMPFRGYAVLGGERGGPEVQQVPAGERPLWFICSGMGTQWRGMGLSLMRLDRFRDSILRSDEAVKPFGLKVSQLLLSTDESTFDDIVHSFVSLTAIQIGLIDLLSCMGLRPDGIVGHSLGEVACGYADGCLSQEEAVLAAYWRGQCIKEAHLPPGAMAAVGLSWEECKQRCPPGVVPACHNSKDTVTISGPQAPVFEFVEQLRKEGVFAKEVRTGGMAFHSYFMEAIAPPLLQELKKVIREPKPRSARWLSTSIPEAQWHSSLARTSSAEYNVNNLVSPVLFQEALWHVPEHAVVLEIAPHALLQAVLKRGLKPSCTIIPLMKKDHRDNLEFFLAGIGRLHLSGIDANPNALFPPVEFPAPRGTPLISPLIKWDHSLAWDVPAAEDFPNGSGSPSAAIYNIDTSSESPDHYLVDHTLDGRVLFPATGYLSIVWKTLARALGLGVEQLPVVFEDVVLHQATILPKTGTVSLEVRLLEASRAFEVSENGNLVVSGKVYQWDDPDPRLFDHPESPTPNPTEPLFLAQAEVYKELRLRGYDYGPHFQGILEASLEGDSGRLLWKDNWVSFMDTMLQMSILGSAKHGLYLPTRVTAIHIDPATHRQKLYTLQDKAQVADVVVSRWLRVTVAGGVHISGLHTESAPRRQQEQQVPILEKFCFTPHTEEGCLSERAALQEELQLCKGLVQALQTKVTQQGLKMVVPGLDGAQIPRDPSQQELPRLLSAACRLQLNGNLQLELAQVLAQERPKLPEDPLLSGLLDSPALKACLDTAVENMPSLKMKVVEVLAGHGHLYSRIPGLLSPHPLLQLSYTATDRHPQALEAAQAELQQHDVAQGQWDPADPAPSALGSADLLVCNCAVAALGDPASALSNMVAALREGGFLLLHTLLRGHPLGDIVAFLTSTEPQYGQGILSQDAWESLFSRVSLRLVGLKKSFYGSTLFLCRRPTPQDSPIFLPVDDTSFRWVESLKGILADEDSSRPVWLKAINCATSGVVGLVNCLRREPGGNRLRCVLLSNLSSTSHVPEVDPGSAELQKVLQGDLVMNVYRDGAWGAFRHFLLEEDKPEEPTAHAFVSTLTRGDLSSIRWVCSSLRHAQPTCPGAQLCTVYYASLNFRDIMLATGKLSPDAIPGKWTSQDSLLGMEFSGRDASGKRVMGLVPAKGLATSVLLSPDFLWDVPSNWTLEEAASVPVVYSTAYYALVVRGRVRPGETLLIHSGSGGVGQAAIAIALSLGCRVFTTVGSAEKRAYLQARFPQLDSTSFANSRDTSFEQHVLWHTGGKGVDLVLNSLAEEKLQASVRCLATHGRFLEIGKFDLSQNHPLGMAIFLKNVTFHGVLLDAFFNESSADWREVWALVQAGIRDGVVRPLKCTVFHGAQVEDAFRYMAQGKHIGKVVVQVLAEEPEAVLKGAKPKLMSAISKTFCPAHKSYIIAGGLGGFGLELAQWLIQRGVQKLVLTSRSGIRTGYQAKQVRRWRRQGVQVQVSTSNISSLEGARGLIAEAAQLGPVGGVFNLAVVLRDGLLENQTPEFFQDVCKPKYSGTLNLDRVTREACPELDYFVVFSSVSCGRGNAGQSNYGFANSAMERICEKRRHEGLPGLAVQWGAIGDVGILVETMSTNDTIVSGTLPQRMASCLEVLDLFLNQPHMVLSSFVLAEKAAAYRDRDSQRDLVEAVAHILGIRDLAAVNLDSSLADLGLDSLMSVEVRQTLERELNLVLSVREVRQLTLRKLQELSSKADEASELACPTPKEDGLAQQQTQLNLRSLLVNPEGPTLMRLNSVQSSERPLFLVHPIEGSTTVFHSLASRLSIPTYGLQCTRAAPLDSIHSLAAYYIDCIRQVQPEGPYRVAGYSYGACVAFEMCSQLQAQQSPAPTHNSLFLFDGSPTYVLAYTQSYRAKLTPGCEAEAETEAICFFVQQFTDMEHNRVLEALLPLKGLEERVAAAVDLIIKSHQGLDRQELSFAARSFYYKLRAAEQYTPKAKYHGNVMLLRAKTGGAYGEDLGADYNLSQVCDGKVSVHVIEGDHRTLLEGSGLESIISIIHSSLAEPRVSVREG
# Method: (§1) Compounds with formula I (platensimycin) and II (platencin) were titrated against human or rat FAS using the Flashplate assay. Animal FAS activity was assayed radiochemically for the formation of ^3H-palmitate. The assay buffer contained 200 mM KPi, pH 7, 2 mM EDTA, 2.5 mM DTT, 5 μM Acetyl CoA (^3H-acetyl-CoA, Specific Activity=0.3 Ci/mmole), 21 μM malonyl-CoA, and 20 uM NADPH in a final reaction volume of 200 μl Assays are performed in 96-well Phospholipid coated FlashPlates (Perkin Elmer). The reaction was initiated by adding FAS (0.17 mUnits/well, 1 Unit=1μ mole of NADPH consumed/minute). The plates were incubated at RT for 5 minutes before adding 6 μl of perchloric acid to stop the reaction. The plates sat at RT for at least 3 hours, preferably overnight, before counting. Background was determined from wells without malonyl CoA. The source of Human FAS was SkBr3 cells. Cell extracts were processed by ammonium sulfate precipitation followed by DEAE chromatography essentially as described by Jayakumar et al., 1995 (Jayakumar A, Tai M H, Huang W Y, al-Feel W, Hsu M, Abu-Elheiga L, Chirala S S, Wakil S J. Human fatty acid synthase: properties and molecular cloning. Proc Natl Acad Sci USA. 1995 Sep. 12; 92(19):8695-9). […]
# [1] = tested on: fatty acid synthesis in rat hepatocytes; test: Fatty acid synthesis in rat hepatocytes in vitro (C14-acetate incorporation); format: cell-based; settings: Hepatocyte, primary rat hepatocytes, read-out: Rat IC50 μM, fatty acid synthesis inhibitory activity
# Excerpt: 115: 1030-1038 (2003) with modifications. […] The plates were gassed and sealed.
# [2] = tested on: fatty acid oxidation in rat hepatocytes
# Method: Fatty acid oxidation in the hepatocytes was determined the conversion of C14-oleic acid to soluble acid products as described (Jiang G, Li Z, Liu F, Ellsworth K, Dallas-Yang Q, Wu M, Ronan J, Essau C, Murphy C, Szalkowski D, Bergeron R, Doebber T and Zhang B. Prevention of obesity in mice by antisense oligonucleotide inhibitors of stearoyl-CoA desaturase-1. J. Clin. Invest. 115: 1030-1038 (2003); Mannaerts G P, Debeer L J, Thomas J, ans DeSchepper P J. Mitochondrial and proxisomal fatty acid oxidation in liver homogenates and isolated hepatocytes from control and clofibrate-treated rats. J. Biol. Chem. 254:4585-4595 (1979)) with modifications. Hepatocytes seeded overnight and washed twice with PBS and then pre-incubated with compounds in 5 μl of DMSO in 2 ml medium199 plus 0.25% bovine serum albumin for 60 min. C14-oleic acid 0.25 μCi (NEN) was added to each well. The plates were gassed and sealed. After one hr incubation, 1 ml of medium was removed, mixed with 100 μl of 10% BSA and then 100 μl 60% HClO4. After centrifugation, 1 ml of the solution was counted the level of soluble acid products.
# rat FAS = target: T2, rat FAS (Rattus norvegicus, UniProt P12785); test: FAS inhibitory activity in cell free Flashplate assay (formation of 3H-palmitate), rat FAS; format: biochemical; settings: rat liver FAS, cell free flash plate assay
# T2 construct: The clarified supernatant was fractionated by ammonium sulfate precipitation; from tissue; host or cells: rat liver (fasted and high carbohydrate re-fed rats)
# T2 sequence (P12785 whole entry): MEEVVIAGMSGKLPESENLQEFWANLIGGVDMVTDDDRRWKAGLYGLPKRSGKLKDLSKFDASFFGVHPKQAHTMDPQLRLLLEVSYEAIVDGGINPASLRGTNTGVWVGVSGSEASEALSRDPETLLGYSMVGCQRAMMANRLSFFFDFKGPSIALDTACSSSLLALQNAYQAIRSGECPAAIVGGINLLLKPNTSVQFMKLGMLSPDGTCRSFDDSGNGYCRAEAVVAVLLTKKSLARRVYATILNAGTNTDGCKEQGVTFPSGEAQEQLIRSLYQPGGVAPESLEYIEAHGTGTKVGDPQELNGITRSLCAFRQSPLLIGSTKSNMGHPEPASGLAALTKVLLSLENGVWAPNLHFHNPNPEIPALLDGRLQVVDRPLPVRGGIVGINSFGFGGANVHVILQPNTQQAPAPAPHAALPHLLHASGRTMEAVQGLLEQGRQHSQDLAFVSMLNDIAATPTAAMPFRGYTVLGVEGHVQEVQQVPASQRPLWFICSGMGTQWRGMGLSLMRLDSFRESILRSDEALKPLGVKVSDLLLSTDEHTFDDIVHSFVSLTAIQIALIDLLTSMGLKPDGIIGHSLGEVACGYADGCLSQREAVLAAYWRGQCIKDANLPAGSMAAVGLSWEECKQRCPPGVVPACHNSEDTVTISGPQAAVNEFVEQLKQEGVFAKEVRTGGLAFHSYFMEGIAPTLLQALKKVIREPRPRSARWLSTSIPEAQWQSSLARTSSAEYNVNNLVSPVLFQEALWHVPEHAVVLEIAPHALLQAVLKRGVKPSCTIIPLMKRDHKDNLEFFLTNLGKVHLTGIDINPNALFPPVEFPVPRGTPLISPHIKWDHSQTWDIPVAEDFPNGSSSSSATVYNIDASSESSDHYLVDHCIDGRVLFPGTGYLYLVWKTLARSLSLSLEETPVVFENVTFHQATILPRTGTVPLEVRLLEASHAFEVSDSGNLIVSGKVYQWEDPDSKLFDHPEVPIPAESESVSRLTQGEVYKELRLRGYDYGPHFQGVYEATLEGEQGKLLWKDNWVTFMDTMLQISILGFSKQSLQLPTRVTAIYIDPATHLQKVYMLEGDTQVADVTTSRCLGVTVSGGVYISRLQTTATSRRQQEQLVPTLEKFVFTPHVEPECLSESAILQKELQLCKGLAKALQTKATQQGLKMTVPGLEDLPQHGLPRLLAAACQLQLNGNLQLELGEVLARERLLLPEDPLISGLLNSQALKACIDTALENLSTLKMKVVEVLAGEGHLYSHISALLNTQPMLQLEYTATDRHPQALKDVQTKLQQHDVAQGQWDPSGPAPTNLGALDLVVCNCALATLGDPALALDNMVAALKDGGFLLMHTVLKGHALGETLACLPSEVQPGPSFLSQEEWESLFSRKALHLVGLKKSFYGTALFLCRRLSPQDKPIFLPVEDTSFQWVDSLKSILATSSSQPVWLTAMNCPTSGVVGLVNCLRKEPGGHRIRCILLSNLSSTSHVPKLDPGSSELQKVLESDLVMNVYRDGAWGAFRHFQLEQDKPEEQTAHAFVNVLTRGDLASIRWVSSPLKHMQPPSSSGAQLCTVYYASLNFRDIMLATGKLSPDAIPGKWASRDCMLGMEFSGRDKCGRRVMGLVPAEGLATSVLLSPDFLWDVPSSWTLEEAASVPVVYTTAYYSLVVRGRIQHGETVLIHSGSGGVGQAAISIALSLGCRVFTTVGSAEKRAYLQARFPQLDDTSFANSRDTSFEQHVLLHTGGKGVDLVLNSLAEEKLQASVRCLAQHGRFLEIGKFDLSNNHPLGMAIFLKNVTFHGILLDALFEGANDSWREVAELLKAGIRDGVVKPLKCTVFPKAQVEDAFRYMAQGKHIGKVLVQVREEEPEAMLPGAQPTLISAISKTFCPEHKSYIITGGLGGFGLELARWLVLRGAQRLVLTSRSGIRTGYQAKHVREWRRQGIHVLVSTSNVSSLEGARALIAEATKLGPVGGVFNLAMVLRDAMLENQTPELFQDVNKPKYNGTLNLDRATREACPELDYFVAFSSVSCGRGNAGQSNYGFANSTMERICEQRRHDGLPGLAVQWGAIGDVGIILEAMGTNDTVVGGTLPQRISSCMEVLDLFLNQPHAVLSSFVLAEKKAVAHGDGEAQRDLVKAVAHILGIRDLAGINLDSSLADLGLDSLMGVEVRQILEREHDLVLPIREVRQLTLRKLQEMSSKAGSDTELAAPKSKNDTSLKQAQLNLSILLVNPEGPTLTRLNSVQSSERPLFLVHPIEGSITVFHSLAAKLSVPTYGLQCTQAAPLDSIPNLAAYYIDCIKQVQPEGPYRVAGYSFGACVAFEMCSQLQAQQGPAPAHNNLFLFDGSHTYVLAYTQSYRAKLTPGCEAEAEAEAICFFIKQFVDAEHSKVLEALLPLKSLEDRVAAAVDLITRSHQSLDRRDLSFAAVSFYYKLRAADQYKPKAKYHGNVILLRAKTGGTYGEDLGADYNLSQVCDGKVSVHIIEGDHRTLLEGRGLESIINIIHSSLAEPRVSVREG
# Method: as §1
IC50 (human FAS),"Inhibition of Oxidation of Fatty Acids, Rat Hepatocyte (% of control at 10 uM) [2]",IC50 (rat FAS),Compound,IC50 [1]
6.3 µM,66.0 % of control,–,"C=C1C[C@@]23C=CC(=O)[C@@](C)(CCC(=O)Nc4c(O)ccc(C(=O)O)c4O)[C@@H]2C[C@@H]1CC3 [Formula II, platencin]",3.24 µM
0.3 µM,59.7 % of control,0.18 µM,"C[C@]12C[C@@]34C=CC(=O)[C@@](C)(CCC(=O)Nc5c(O)ccc(C(=O)O)c5O)C3[C@H](CC1C4)O2 (stereo partly shown) [Formula I, platensimycin]",0.093 µM
